The source of these data is PMC3969223, “Characterization of WZ4003 and HTH-01-015 as selective inhibitors of the LKB1-tumour-suppressor-activated NUAK kinases” (Biochemical Journal, 2013).

Each structure is given as a SMILES string.

What all share (test): Kinase profiling
Holding throughout (details): 0.1 or 1 μM inhibitor; mean of triplicate

Assay [1] deals with PINK (Tribolium castaneum, UniProt D6WMX4). It counts as biochemical, insect. Here is the method: Kinase inhibitor specificity profiling assays were carried out at The International Centre for Protein Kinase Profiling (http://www.kinase-screen.mrc.ac.uk/) against a panel of 140 protein kinases as described previously. Results are presented as a percentage of kinase activity in DMSO control reactions. Protein kinases were assayed in vitro with 0.1 or 1 μM of the inhibitors and the results are presented as an average of triplicate reactions±S.D. or in the form of comparative histograms.

The target of assay [2] is p38α MAPK (Homo sapiens, UniProt Q16539). Type of assay: biochemical. The procedure, abridged:
(§1)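 Read-out: % residual kinase activity vs DMSO control; mean of triplicates ±S.D. Inhibitor tested at 0.1 or 1 μM in vitro across a 140-kinase panel.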

Assay [3] concerns the target SGK1 (Homo sapiens, UniProt O00141). It counts as biochemical. The procedure, abridged:
as §1

The target of assay [4] is RSK1 (Homo sapiens, UniProt Q15418). It counts as biochemical. An outline of the steps: as §1
For assay [5], the target named is HER4 (Homo sapiens, UniProt Q15303). Type of assay: biochemical. The procedure, abridged: as §1
The target in assay [6] is PLK1 (Homo sapiens, UniProt P53350). Type of assay: biochemical.
Assay [7] has as its target DDR2 (Homo sapiens, UniProt Q16832). Type of assay: biochemical. The procedure, abridged: as §1
Assay [8] deals with TAK1 (Homo sapiens, UniProt O43318). It counts as biochemical. The procedure, abridged:
as §1

Assay [9] deals with IRAK1 (Homo sapiens, UniProt P51617). It counts as biochemical. The procedure, abridged: as §1
For assay [10], the target named is ZAP70 (Homo sapiens, UniProt P43403). Type of assay: biochemical. The procedure, abridged: as §1
For assay [11], the target named is MELK (Homo sapiens, UniProt Q14680). Type of assay: biochemical. An outline of the steps: as §1
For assay [12], the target named is PIM3 (Homo sapiens, UniProt Q86V86). Type of assay: biochemical. An outline of the steps: as §1
In assay [13] the target is ERK5 (Homo sapiens, UniProt Q13164). Type of assay: biochemical. The procedure, abridged:
as §1

Assay [14] addresses S6K1 (Homo sapiens, UniProt P23443). Type of assay: biochemical. The procedure, abridged:
as §1

Assay [15] deals with MSK1 (Homo sapiens, UniProt O75582). Type of assay: biochemical. An outline of the steps: as §1
In assay [16] the target is CHK1 (Homo sapiens, UniProt O14757). It counts as biochemical. The procedure, abridged:
as §1

Assay [17] concerns the target OSR1 (Homo sapiens, UniProt O95747). It counts as biochemical. The procedure, abridged:
as §1

Assay [18] concerns the target p38γ MAPK (Homo sapiens, UniProt P53778). It counts as biochemical.

Sequence of HER4 (Q15303 26-1308): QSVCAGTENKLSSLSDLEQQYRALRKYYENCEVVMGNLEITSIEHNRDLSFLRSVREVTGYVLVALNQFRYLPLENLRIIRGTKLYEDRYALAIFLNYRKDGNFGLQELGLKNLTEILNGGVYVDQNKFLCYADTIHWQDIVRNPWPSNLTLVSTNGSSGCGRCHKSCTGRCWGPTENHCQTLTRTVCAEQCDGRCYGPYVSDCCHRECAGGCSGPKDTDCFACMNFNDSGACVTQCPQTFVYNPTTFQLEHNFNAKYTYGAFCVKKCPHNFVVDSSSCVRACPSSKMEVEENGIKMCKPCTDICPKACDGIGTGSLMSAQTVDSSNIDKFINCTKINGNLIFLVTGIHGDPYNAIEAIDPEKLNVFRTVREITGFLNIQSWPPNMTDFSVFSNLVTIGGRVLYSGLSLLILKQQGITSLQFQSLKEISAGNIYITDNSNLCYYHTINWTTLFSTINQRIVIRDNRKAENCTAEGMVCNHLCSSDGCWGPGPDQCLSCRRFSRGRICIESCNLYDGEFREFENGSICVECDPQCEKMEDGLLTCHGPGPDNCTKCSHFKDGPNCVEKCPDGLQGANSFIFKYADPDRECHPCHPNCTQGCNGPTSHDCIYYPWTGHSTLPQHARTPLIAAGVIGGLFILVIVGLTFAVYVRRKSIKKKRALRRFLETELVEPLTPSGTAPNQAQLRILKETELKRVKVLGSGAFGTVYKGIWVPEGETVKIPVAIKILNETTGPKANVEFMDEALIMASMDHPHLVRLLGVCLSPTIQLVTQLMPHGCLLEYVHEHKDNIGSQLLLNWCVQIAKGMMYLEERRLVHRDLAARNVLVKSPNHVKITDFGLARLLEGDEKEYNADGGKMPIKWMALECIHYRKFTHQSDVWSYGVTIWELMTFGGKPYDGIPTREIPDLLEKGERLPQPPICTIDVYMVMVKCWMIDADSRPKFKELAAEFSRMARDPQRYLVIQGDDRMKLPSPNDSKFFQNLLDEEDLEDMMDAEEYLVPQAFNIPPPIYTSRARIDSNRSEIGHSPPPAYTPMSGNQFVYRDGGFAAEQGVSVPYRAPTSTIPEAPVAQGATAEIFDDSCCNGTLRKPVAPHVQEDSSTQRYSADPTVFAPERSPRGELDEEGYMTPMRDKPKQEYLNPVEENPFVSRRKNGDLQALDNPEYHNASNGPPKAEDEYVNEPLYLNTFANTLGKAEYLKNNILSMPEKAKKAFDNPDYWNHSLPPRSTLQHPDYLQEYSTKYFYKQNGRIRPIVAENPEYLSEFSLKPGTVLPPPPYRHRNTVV
Sequence of ZAP70 (P43403 whole entry): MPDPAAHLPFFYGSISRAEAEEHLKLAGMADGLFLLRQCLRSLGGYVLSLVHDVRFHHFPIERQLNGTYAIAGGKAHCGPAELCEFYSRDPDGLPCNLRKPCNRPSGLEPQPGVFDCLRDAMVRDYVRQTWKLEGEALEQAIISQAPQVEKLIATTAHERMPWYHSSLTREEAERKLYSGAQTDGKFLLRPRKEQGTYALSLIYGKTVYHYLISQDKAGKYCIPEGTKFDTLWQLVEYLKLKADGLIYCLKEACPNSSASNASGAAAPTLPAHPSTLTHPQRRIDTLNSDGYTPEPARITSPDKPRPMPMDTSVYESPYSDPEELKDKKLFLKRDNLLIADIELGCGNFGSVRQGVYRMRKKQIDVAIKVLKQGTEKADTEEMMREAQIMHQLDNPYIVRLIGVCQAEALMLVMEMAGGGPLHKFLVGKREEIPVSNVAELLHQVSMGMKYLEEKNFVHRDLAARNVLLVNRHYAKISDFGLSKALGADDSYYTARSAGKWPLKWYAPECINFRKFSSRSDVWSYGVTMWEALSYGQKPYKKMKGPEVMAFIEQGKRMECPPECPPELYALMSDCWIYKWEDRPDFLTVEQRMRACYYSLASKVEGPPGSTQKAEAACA
Sequence of TAK1 (O43318 1-303 limits assumed): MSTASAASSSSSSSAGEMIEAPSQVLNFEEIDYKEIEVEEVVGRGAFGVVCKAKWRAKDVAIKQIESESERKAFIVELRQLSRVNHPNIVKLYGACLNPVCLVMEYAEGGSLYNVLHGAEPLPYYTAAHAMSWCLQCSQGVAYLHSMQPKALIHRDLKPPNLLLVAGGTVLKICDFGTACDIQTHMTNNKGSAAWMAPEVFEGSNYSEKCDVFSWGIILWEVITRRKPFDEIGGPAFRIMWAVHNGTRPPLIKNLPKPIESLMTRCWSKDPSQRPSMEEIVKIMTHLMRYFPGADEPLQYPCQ
Sequence of IRAK1 (P51617 whole entry): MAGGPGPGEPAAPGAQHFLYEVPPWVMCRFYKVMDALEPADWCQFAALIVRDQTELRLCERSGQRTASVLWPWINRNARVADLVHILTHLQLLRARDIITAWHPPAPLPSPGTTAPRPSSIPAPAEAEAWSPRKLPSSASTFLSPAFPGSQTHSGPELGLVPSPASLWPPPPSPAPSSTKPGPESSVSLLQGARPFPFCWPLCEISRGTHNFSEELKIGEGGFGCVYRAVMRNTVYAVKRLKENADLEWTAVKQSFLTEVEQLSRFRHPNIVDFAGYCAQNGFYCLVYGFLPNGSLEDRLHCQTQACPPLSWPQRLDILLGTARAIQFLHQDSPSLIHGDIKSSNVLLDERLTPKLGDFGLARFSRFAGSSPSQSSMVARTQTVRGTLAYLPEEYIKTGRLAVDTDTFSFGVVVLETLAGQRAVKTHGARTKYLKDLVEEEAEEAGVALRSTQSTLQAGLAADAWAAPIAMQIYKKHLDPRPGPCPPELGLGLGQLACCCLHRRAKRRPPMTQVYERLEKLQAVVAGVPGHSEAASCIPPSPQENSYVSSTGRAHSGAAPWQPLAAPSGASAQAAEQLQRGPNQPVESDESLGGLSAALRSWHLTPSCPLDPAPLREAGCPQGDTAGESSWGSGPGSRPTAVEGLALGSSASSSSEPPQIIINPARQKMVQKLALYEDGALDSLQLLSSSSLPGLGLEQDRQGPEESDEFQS
Sequence of OSR1 (O95747 whole entry): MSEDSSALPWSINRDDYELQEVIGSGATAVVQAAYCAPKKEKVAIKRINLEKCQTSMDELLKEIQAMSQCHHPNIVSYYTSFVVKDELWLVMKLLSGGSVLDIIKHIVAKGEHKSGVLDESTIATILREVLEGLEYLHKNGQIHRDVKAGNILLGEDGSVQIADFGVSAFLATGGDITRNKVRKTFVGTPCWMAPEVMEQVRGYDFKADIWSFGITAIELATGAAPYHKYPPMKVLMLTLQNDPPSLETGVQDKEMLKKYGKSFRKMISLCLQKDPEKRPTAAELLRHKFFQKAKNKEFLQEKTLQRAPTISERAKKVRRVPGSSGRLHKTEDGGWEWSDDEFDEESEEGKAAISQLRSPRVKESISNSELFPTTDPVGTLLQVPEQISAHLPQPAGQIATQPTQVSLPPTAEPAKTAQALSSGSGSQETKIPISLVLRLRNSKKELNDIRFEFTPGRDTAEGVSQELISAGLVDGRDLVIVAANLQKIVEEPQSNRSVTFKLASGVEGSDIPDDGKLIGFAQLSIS
Sequence of MELK (Q14680 whole entry): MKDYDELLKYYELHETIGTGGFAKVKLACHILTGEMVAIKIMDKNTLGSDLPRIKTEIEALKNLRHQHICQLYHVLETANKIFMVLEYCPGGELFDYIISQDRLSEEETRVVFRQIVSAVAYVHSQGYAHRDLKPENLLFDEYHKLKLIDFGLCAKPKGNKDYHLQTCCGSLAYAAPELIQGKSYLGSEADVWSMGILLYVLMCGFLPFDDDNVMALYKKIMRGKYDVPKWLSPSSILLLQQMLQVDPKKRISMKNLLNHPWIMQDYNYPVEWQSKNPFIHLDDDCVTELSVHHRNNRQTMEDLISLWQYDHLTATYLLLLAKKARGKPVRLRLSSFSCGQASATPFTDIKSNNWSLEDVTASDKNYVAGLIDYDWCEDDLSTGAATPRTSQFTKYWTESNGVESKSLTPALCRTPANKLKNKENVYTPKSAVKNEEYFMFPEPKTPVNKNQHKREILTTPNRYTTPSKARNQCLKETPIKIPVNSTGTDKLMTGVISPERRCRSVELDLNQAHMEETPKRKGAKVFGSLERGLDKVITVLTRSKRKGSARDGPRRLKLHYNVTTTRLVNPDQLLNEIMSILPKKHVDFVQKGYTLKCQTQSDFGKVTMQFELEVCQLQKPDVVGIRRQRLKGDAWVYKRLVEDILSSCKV
Sequence of p38γ MAPK (P53778 whole entry): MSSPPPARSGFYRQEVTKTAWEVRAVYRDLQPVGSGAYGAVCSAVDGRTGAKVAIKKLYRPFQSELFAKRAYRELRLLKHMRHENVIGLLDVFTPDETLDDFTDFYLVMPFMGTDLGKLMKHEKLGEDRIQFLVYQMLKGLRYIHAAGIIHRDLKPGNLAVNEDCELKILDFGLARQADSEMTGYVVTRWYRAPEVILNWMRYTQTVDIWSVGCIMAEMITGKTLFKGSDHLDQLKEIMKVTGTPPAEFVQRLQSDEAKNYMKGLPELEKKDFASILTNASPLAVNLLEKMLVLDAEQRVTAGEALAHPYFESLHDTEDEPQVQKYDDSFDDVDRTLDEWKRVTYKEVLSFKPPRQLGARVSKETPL

With `Cc1nc(Nc2cnn(C3CCNCC3)c2)nc2c1N(C)C(=O)c1cc3ccccc3cc1N2C` [HTH-01-015], the “PINK activity, percentage of DMSO control” value in assay [1] is recorded as 99 percentage. Moreover, the “p38α MAPK activity, percentage of DMSO control” value in [2] was found to be 118 percentage. Also, the “SGK1 activity, percentage of DMSO control” value in [3] is recorded as 97 percentage. Also, in assay [4], the “RSK1 activity, percentage of DMSO control” value was determined as 93 percentage. In addition, the “HER4 activity, percentage of DMSO control” value in assay [5] is recorded as 102 percentage. In [6], the “PLK1 activity, percentage of DMSO control” value amounted to 98 percentage. Moreover, the “DDR2 activity, percentage of DMSO control” value in assay [7] turned out to be 91 percentage. Besides, in assay [8], the “TAK1 activity, percentage of DMSO control” value was 109 percentage. In [9], the “IRAK1 activity, percentage of DMSO control” value stood at 103 percentage. The “ZAP70 activity, percentage of DMSO control” value in assay [10] is on record as 103 percentage. Further, the “MELK activity, percentage of DMSO control” value in [11] came out at 99 percentage. Also, the “PIM3 activity, percentage of DMSO control” value in assay [12] came to 97 percentage. In assay [13], the “ERK5 activity, percentage of DMSO control” value amounted to 121 percentage. Besides, the “S6K1 activity, percentage of DMSO control” value in assay [14] is reported as 85 percentage. In addition, in assay [15], the “MSK1 activity, percentage of DMSO control” value worked out at 111 percentage. In addition, in assay [16], the “CHK1 activity, percentage of DMSO control” value stood at 106 percentage. Besides, in assay [17], the “OSR1 activity, percentage of DMSO control” value turned out to be 107 percentage. Also, the “p38γ MAPK activity, percentage of DMSO control” value in assay [18] was found to be 100 percentage.
